Reference: PubChem BioAssay AID2060883 (Molecular Pharmacology Branch, DTP, NCI, 2025)

Tested on: 843782-103-R-J1-PDC complex spheroid viability
Assay: Anticancer human tumor 843782-103-R-J1-PDC patient-derived lung adenocarcinoma cell line growth inhibition [RAS]
Conditions: for IC50: curve of first compound; for viability, T/C: stronger effect = lower value
Method in brief: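 Tumour cells grown as complex spheroids with HUVEC endothelial cells and mesenchymal stem cells, treated with RAS pathway inhibitor combinations. Each agent spans half-log steps from near clinical Cmax, or 10 microM where Cmax is unknown.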

[1] = second compound 0.0316 µM, first compound 0.0316 µM
[2] = second compound 0.0316 µM, first compound 0.1 µM
[3] = second compound 0.0316 µM, first compound 0.316 µM
[4] = second compound 0.0316 µM, first compound 1 µM
[5] = second compound 0.1 µM, first compound 0.0316 µM
[6] = second compound 0.1 µM, first compound 0.1 µM
[7] = second compound 0.1 µM, first compound 0.316 µM
[8] = second compound 0.1 µM, first compound 1 µM
[9] = second compound 0.316 µM, first compound 0.0316 µM
[10] = second compound 0.316 µM, first compound 0.1 µM
[11] = second compound 0.316 µM, first compound 0.316 µM
[12] = second compound 0.316 µM, first compound 1 µM
[13] = second compound 1 µM, first compound 0.0316 µM
[14] = second compound 1 µM, first compound 0.1 µM
[15] = second compound 1 µM, first compound 0.316 µM
[16] = second compound 1 µM, first compound 1 µM
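Note: viability read after seven days of compound exposure.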

Question: Which results are given for `NC1c2ccccc2OC12CCN(c1cnc3c(N4CCCc5ncccc54)n[nH]c3n1)CC2` (stereo unspecified) + C#Cc1c(F)ccc2cc(O)cc(-c3ncc4c(N5CC6CCC(C5)N6)nc(OCC56CCCN5CC(F)C6)nc4c3F)c12?
Answer: IC50 (second compound 0.0316 µM): 1160 nM; IC50 (second compound 0.1 µM): 642 nM; IC50 (second compound 0.316 µM): 231 nM; IC50 (second compound 1 µM): 72.1 nM; IC50 (second compound 3.16 µM): < 31.6 nM; IC50 (second compound 10 µM): < 31.6 nM; viability, T/C [1]: 92.1%; viability, T/C [2]: 81.1%; viability, T/C [3]: 60.6%; viability, T/C [4]: 53%; viability, T/C (second compound 0.0316 µM, first compound 3.16 µM): 40.9%; viability, T/C (second compound 0.0316 µM, first compound 10 µM): 25.8%; viability, T/C [5]: 87.8%; viability, T/C [6]: 69.8%; viability, T/C [7]: 54.9%; viability, T/C [8]: 46.2%; viability, T/C (second compound 0.1 µM, first compound 3.16 µM): 37.9%; viability, T/C (second compound 0.1 µM, first compound 10 µM): 22.5%; viability, T/C [9]: 82%; viability, T/C [10]: 61.8%; viability, T/C [11]: 42.8%; viability, T/C [12]: 37.2%; viability, T/C (second compound 0.316 µM, first compound 3.16 µM): 29.4%; viability, T/C (second compound 0.316 µM, first compound 10 µM): 21.2%; viability, T/C [13]: 69%; viability, T/C [14]: 38.5%; viability, T/C [15]: 32.9%; viability, T/C [16]: 26.8%; viability, T/C (second compound 1 µM, first compound 3.16 µM): 21.3%; viability, T/C (second compound 1 µM, first compound 10 µM): 14.9%; viability, T/C (second compound 3.16 µM, first compound 0.0316 µM): 43.3%; viability, T/C (second compound 3.16 µM, first compound 0.1 µM): 25.7%; viability, T/C (second compound 3.16 µM, first compound 0.316 µM): 22.9%; viability, T/C (second compound 3.16 µM, first compound 1 µM): 18.8%; viability, T/C (second compound 3.16 µM, first compound 3.16 µM): 21.1%; viability, T/C (second compound 3.16 µM, first compound 10 µM): 15.9%; viability, T/C (second compound 10 µM, first compound 0.0316 µM): 30.3%; viability, T/C (second compound 10 µM, first compound 0.1 µM): 16.4%; viability, T/C (second compound 10 µM, first compound 0.316 µM): 24%; viability, T/C (second compound 10 µM, first compound 1 µM): 19.1%; viability, T/C (second compound 10 µM, first compound 3.16 µM): 17.5%; viability, T/C (second compound 10 µM, first compound 10 µM): 9.27%

Question: What does the source list for `O=C(c1ccc(F)c(F)c1Nc1ccc(I)cc1F)N1CC(O)([C@@H]2CCCCN2)C1` + CCn1c(-c2cccnc2C(C)OC)c2c3cc(ccc31)N1CCOC(CC(NC(=O)C(C(C)C)N(C)C(=O)C3(F)CCN(C(=O)C#CC(C)(C)N(C)C)CC3)C(=O)N3CCCC(N3)C(=O)OCC(C)(C)C2)C1?
Answer: IC50 (second compound 0.000949 µM): 18.2 nM; IC50 (second compound 0.003 µM): 17.4 nM; IC50 (second compound 0.00949 µM): 22 nM; IC50 (second compound 0.03 µM): 14.8 nM; IC50 (second compound 0.0949 µM): 24.3 nM; IC50 (second compound 0.3 µM): 16.2 nM; viability, T/C (second compound 0.000949 µM, first compound 0.00316 µM): 74.1%; viability, T/C (second compound 0.000949 µM, first compound 0.01 µM): 56.1%; viability, T/C (second compound 0.000949 µM, first compound 0.0316 µM): 42.7%; viability, T/C (second compound 0.000949 µM, first compound 0.1 µM): 31.9%; viability, T/C (second compound 0.000949 µM, first compound 0.316 µM): 20.1%; viability, T/C (second compound 0.000949 µM, first compound 1 µM): 11.8%; viability, T/C (second compound 0.003 µM, first compound 0.00316 µM): 72.2%; viability, T/C (second compound 0.003 µM, first compound 0.01 µM): 49.3%; viability, T/C (second compound 0.003 µM, first compound 0.0316 µM): 43.2%; viability, T/C (second compound 0.003 µM, first compound 0.1 µM): 35.1%; viability, T/C (second compound 0.003 µM, first compound 0.316 µM): 20.1%; viability, T/C (second compound 0.003 µM, first compound 1 µM): 9.69%; viability, T/C (second compound 0.00949 µM, first compound 0.00316 µM): 69.7%; viability, T/C (second compound 0.00949 µM, first compound 0.01 µM): 58%; viability, T/C (second compound 0.00949 µM, first compound 0.0316 µM): 47.1%; viability, T/C (second compound 0.00949 µM, first compound 0.1 µM): 30.9%; viability, T/C (second compound 0.00949 µM, first compound 0.316 µM): 19.2%; viability, T/C (second compound 0.00949 µM, first compound 1 µM): 11.9%; viability, T/C (second compound 0.03 µM, first compound 0.00316 µM): 58.6%; viability, T/C (second compound 0.03 µM, first compound 0.01 µM): 58.1%; viability, T/C (second compound 0.03 µM, first compound 0.0316 µM): 38.9%; viability, T/C (second compound 0.03 µM, first compound 0.1 µM): 27.9%; viability, T/C (second compound 0.03 µM, first compound 0.316 µM): 20.1%; viability, T/C (second compound 0.03 µM, first compound 1 µM): 12.3%; viability, T/C (second compound 0.0949 µM, first compound 0.00316 µM): 75%; viability, T/C (second compound 0.0949 µM, first compound 0.01 µM): 61.4%; viability, T/C (second compound 0.0949 µM, first compound 0.0316 µM): 43.7%; viability, T/C (second compound 0.0949 µM, first compound 0.1 µM): 36.5%; viability, T/C (second compound 0.0949 µM, first compound 0.316 µM): 22.9%; viability, T/C (second compound 0.0949 µM, first compound 1 µM): 11.7%; viability, T/C (second compound 0.3 µM, first compound 0.00316 µM): 62.9%; viability, T/C (second compound 0.3 µM, first compound 0.01 µM): 59.7%; viability, T/C (second compound 0.3 µM, first compound 0.0316 µM): 38.2%; viability, T/C (second compound 0.3 µM, first compound 0.1 µM): 26.8%; viability, T/C (second compound 0.3 µM, first compound 0.316 µM): 23.2%; viability, T/C (second compound 0.3 µM, first compound 1 µM): 13.9%

Question: For `CCN1CCN(Cc2ccc(Nc3ncc(F)c(-c4cc(F)c5nc(C)n(C(C)C)c5c4)n3)nc2)CC1` + C=CC(=O)N1CCN(c2nc(OCC3CCCN3C)nc3c(F)c(-c4nc(N)cc(C)c4C(F)(F)F)c(Cl)cc23)C(C)C1, which IC50 (second compound 0.00316 µM) is on record?
Answer: 988 nM

Question: What about the IC50 (second compound 0.01 µM) of the same compound?
Answer: 471 nM

Question: What about the IC50 (second compound 0.0316 µM) of the same compound?
Answer: 697 nM

Question: And the IC50 (second compound 0.1 µM)?
Answer: 764 nM

Question: What about the IC50 (second compound 0.316 µM) of the same compound?
Answer: > 1000 nM

Question: And the IC50 (second compound 1 µM)?
Answer: 836 nM

Question: And the viability, T/C (second compound 0.00316 µM, first compound 0.00316 µM)?
Answer: 86.1%

Question: What about the viability, T/C (second compound 0.00316 µM, first compound 0.01 µM) of the same compound?
Answer: 93.4%

Question: And the viability, T/C (second compound 0.00316 µM, first compound 0.0316 µM)?
Answer: 88.5%

Question: And the viability, T/C (second compound 0.00316 µM, first compound 0.1 µM)?
Answer: 86.3%

Question: What about the viability, T/C (second compound 0.00316 µM, first compound 0.316 µM) of the same compound?
Answer: 68.1%

Question: And the viability, T/C (second compound 0.00316 µM, first compound 1 µM)?
Answer: 49.8%

Question: And the viability, T/C (second compound 0.01 µM, first compound 0.00316 µM)?
Answer: 88.4%

Question: What about the viability, T/C (second compound 0.01 µM, first compound 0.01 µM) of the same compound?
Answer: 86.6%

Question: What about the viability, T/C (second compound 0.01 µM, first compound 0.0316 µM) of the same compound?
Answer: 86.3%

Question: And the viability, T/C (second compound 0.01 µM, first compound 0.1 µM)?
Answer: 74.9%

Question: What about the viability, T/C (second compound 0.01 µM, first compound 0.316 µM) of the same compound?
Answer: 53.8%

Question: And the viability, T/C (second compound 0.01 µM, first compound 1 µM)?
Answer: 43%

Question: And the viability, T/C (second compound 0.0316 µM, first compound 0.00316 µM)?
Answer: 83.1%

Question: What about the viability, T/C (second compound 0.0316 µM, first compound 0.01 µM) of the same compound?
Answer: 83.7%

Question: What about the viability, T/C [1] of the same compound?
Answer: 81.4%

Question: What about the viability, T/C [2] of the same compound?
Answer: 79.8%

Question: And the viability, T/C [3]?
Answer: 65.5%

Question: What about the viability, T/C [4] of the same compound?
Answer: 42.2%

Question: What about the viability, T/C (second compound 0.1 µM, first compound 0.00316 µM) of the same compound?
Answer: 89.5%

Question: And the viability, T/C (second compound 0.1 µM, first compound 0.01 µM)?
Answer: 81%

Question: And the viability, T/C [5]?
Answer: 81.5%

Question: What about the viability, T/C [6] of the same compound?
Answer: 80%

Question: What about the viability, T/C [7] of the same compound?
Answer: 60.7%

Question: What about the viability, T/C [8] of the same compound?
Answer: 46.7%

Question: And the viability, T/C (second compound 0.316 µM, first compound 0.00316 µM)?
Answer: 88.9%

Question: What about the viability, T/C (second compound 0.316 µM, first compound 0.01 µM) of the same compound?
Answer: 86%

Question: And the viability, T/C [9]?
Answer: 83.7%

Question: What about the viability, T/C [10] of the same compound?
Answer: 71.9%

Question: And the viability, T/C [11]?
Answer: 62.5%

Question: What about the viability, T/C [12] of the same compound?
Answer: 57.7%

Question: And the viability, T/C (second compound 1 µM, first compound 0.00316 µM)?
Answer: 91.1%

Question: What about the viability, T/C (second compound 1 µM, first compound 0.01 µM) of the same compound?
Answer: 83.2%

Question: And the viability, T/C [13]?
Answer: 86.7%

Question: What about the viability, T/C [14] of the same compound?
Answer: 78.3%

Question: What about the viability, T/C [15] of the same compound?
Answer: 63.5%

Question: And the viability, T/C [16]?
Answer: 47.5%
